Reference: patent publication US20120129833A1, “CYCLIC KETOENOLS FOR THERAPY” (BAYER PHARMA AKTIENGESELLSCHAFT, priority 2010, published 2012)

Tests used:
[1] = target: T1, recombinant human ACC1 (acetyl-CoA carboxylase 1) (Homo sapiens, UniProt Q13085); experiment: Human ACC1 enzyme assay (HTRF ADP detection); assay type: biochemical; conditions: 50 μM ATP, 20 μM acetyl-CoA, 15 min pre-incubation, 20 min at 22° C.; read-out: ACC 1 IC50;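 note: ADP by-product quantified by competitive HTRF immunoassay with europium cryptate anti-ADP antibody and d2-labelled ADP, read after 1 h binding at 22 °C, enzyme near 2.5 ng/µl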
T1 construct: NM_198834, amino acids 39—end; FLAG (C); made in house; host or cells: baculovirus-transfected insect cells (Hi5)
Method: The basic principle of the assay is the measurement of adenosine diphosphate (ADP), which is formed as a by-product, by means of an HTRF®-based competitive immunoassay (HTRF=Homogeneous Time Resolved Fluorescence).
(§1) The amount of complex of d2-labelled ADP and europium cryptate-labelled anti-ADP antibody was then determined by measuring the resonance energy transfer of europium cryptate to d2.

[2] = target: T2, ACC2 (acetyl-CoA carboxylase 2) (Homo sapiens, UniProt O00763); experiment: Human ACC2 enzyme assay (HTRF ADP detection); assay type: biochemical; conditions: 20 μM acetyl-CoA, 15 min pre-incubation, 20 min at 22° C.; read-out: ACC 2 IC50
T2 construct: catalogue no; 50201, amino acids 39—end, expressed in baculovirus-transfected Sf9 insect cells; His (C); purchased BPS Bioscience (San Diego, Calif.) 50201; host or cells: baculovirus-transfected Sf9 insect cells
T2 sequence (O00763 39-2458 limits assumed): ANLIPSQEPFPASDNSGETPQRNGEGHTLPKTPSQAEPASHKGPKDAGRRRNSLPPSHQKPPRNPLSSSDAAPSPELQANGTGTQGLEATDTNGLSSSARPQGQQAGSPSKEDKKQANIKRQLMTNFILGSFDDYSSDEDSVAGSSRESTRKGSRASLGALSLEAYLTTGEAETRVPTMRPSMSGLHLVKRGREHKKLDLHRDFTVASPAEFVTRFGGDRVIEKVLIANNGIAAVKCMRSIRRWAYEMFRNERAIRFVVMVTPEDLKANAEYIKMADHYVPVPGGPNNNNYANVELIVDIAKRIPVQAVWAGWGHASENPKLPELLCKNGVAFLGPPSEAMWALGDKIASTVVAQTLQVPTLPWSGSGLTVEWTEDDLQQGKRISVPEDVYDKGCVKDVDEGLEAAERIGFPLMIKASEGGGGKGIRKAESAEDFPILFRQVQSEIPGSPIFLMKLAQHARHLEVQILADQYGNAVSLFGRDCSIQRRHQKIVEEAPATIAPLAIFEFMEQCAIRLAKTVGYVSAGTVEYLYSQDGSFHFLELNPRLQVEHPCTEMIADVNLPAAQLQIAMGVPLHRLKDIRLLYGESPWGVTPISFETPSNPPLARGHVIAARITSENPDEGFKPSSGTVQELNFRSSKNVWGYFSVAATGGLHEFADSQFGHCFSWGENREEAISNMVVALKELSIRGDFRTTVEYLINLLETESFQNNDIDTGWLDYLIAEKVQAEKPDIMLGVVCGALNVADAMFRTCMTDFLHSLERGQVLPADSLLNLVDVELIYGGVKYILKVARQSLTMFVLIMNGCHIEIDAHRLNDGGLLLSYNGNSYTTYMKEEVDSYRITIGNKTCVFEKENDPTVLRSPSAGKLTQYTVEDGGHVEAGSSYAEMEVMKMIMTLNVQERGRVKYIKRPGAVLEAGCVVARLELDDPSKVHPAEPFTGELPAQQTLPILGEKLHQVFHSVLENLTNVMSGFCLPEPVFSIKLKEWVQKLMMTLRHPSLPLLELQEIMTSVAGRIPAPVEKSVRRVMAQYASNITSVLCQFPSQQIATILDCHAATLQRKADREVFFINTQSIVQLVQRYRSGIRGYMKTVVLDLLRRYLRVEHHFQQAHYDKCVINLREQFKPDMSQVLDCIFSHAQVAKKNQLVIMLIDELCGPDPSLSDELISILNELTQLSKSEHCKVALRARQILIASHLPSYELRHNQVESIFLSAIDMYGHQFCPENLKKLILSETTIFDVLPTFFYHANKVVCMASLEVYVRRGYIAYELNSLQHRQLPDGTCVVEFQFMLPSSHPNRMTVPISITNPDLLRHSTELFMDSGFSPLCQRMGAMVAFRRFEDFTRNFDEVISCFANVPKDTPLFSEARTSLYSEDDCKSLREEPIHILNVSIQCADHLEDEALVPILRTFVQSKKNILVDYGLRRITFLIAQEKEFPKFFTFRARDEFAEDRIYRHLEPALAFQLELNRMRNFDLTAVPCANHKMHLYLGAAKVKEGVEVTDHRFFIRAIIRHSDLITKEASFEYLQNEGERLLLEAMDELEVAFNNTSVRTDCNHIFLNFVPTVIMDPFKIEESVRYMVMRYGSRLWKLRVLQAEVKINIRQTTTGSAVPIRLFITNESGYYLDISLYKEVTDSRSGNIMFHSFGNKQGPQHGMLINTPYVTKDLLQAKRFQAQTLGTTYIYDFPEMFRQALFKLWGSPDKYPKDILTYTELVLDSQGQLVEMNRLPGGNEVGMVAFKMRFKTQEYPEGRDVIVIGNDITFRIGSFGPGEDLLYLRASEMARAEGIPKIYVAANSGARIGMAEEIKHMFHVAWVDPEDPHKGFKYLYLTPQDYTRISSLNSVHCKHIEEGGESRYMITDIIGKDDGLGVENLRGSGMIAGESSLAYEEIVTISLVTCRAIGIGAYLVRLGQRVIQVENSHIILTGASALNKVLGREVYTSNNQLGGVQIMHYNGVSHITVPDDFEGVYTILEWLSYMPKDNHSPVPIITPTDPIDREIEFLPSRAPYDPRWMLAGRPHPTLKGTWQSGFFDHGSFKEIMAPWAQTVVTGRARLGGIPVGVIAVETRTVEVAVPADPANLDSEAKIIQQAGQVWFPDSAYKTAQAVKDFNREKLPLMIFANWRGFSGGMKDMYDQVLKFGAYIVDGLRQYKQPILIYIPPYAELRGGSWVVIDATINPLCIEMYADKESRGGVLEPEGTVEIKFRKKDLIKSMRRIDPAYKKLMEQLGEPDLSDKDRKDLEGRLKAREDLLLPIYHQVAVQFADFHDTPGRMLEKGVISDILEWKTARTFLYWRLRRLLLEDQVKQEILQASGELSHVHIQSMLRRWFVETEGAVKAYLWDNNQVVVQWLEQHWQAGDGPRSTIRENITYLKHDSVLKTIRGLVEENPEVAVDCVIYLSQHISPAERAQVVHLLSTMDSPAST
Method: The inhibitory activity of the substances of this invention with regard to acetyl-CoA carboxylase 2 (ACC2) was measured using the ACC2 assay described in the paragraphs below. The basic principle of the assay is the measurement of adenosine diphosphate (ADP), which is formed as a by-product, by means of an HTRF®-based competitive immunoassay (HTRF=Homogeneous Time Resolved Fluorescence).
as §1

| IC50 [1] [µM] | IC50 [2] [µM] | Structure (SMILES) |
| --- | --- | --- |
| 0.754 | 0.565 | CCC1CCC2(CC1)CC(=O)C(c1cc(-c3ccc(Cl)cc3)ccc1C)=C2O (centres unmarked) [Example 6-5, 3-(4′-chloro-4-methylbiphenyl-3-yl)-8-ethyl-4-hydroxyspiro[4.5]dec-3-en-2-one] |
| 0.742 | > 20 | Cc1ccc(-c2ccc(C)c(C3=C(O)C4(CCOCC4)NC3=O)c2)cc1 [Example 1-15, 3-(4,4′-dimethylbiphenyl-3-yl)-4-hydroxy-8-oxa-1-azaspiro[4.5]dec-3-en-2-one] |
| 0.24 | 0.214 | Cc1ccc(-c2ccc(Cl)cc2)cc1C1=C(O)C2(CCC(C)(C)CC2)NC1=O [Example 1-20, 3-(4′-chloro-4-methylbiphenyl-3-yl)-4-hydroxy-8,8-dimethyl-1-azaspiro[4.5]dec-3-en-2-one] |
| 0.562 | 19.4 | COC1CCCC2(C1)OC(=O)C(c1cc(-c3ccc(Cl)cc3)ccc1C)=C2O (centres unmarked) [Example 2-14, 3-(4′-chloro-4-methylbiphenyl-3-yl)-4-hydroxy-7-methoxy-1-oxaspiro[4.5]dec-3-en-2-one] |
| 0.353 | 18.9 | Cc1ccc(-c2ccc(C)c(C3=C(O)C4(CCCCC4)NC3=O)c2)cc1 [Example 1-13, 3-(4,4′-dimethylbiphenyl-3-yl)-4-hydroxy-1-azaspiro[4.5]dec-3-en-2-one] |
| 0.14 | 2.5 | Cc1ccc(-c2ccc(F)cc2)cc1C1=C(O)[C@]2(CC[C@@]3(CCCO3)CC2)OC1=O [Example 2-28, (5r,8s)-3-(4′-fluoro-4-methylbiphenyl-3-yl)-4-hydroxy-1,9-dioxadispiro[4.2.4.2]tetradec-3-en-2-one] |
| 0.467 | 0.654 | Cc1ccc(-c2ccc(Cl)cc2)cc1C1=C(O)C2(CCCCCC2)CC1=O [Example 6-7, 3-(4′-chloro-4-methylbiphenyl-3-yl)-4-hydroxyspiro[4.6]undec-3-en-2-one] |
| 0.479 | 3.41 | COCCC1CCCC2(C1)OC(=O)C(c1cc(-c3ccc(Cl)cc3)ccc1C)=C2O (centres unmarked) [Example 2-18, 3-(4′-chloro-4-methylbiphenyl-3-yl)-4-hydroxy-7-(2-methoxyethyl)-1-oxaspiro[4.5]dec-3-en-2-one] |
| 0.5 | > 20 | COC1CCC2(CC1)OC(=O)C(c1cc(-c3ccccc3Cl)ccc1C)=C2O (centres unmarked) [Example 2-7, 3-(2′-chloro-4-methylbiphenyl-3-yl)-4-hydroxy-8-methoxy-1-oxaspiro[4.5]dec-3-en-2-one] |
| 0.333 | 3.06 | Cc1ccc(-c2ccc(Cl)cc2)cc1C1=C(O)C2(CCCC2)CC1=O [Example 6-4, 3-(4′-chloro-4-methylbiphenyl-3-yl)-4-hydroxyspiro[4.4]non-3-en-2-one] |
| 0.201 | 0.233 | Cc1ccc(-c2ccc(Cl)cc2)cc1C1=C(O)[C@]2(CC[C@H](C)CC2)NC1=O [Example 1-76, 3-(4′-chloro-4-methylbiphenyl-3-yl)-4-hydroxy-8-methyl-1-azaspiro[4.5]dec-3-en-2-one] |
| 0.26 | 4.8 | Cc1ccc(-c2ccc(Cl)cc2)c(C)c1C1=C(O)[C@]2(CC[C@]3(CCCO3)CC2)OC1=O [Example 2-26, (5s,8r)-3-(4′-chloro-2,4-dimethylbiphenyl-3-yl)-4-hydroxy-1,9-dioxadispiro[4.2.4.2]tetradec-3-en-2-one] |

More lines, now with the values behind:

| Structure (SMILES) | IC50 [1] [µM] | IC50 [2] [µM] |
| --- | --- | --- |
| Cc1ccc(-c2ccc(Cl)cc2)cc1C1C(=O)N2C3CCC(C3)N2C1=O (centres unmarked) [Example 8-16, 2-(4′-chloro-4-methylbiphenyl-3-yl)tetrahydro-1H-5,8-methanopyrazolo[1,2-a]pyridazine-1,3(2H)-dione] | 0.662 | > 20 |
| CCOC1CCCC2(C1)NC(=O)C(c1c(C)ccc(-c3ccc(Cl)cc3)c1C)=C2O (centres unmarked) [Example 1-73, 3-(4′-chloro-2,4-dimethylbiphenyl-3-yl)-7-ethoxy-4-hydroxy-1-azaspiro[4.5]dec-3-en-2-one] | 0.912 | 4.97 |
| Cc1ccc(-c2ccc(Cl)cc2)cc1C1=C(O)C(C)(C2CC2)NC1=O (centres unmarked) [Example 1-86, 3-(4′-chloro-4-methylbiphenyl-3-yl)-5-cyclopropyl-4-hydroxy-5-methyl-1,5-dihydro-2H-pyrrol-2-one] | 0.541 | 3.3 |
| Cc1ccc(-c2ccc(Cl)cc2)cc1-c1c(O)c2ccc(Cl)cc2[nH]c1=O [Example 9-11, 7-chloro-3-(4′-chloro-4-methylbiphenyl-3-yl)-4-hydroxyquinolin-2(1H)-one] | 0.42 | 4.12 |
| CCc1cc(C)cc(Br)c1C1=C(O)C2(CCCCC2)OC1=O [Example C-4, reference compound] | 5.4 | > 20 |
| Cc1ccc(-c2ccc(Cl)cc2)cc1C1=C(O)C2(CCC(OCC(F)(F)F)CC2)OC1=O (centres unmarked) [Example 2-33, 3-(4′-chloro-4-methylbiphenyl-3-yl)-4-hydroxy-8-(2,2,2-trifluoroethoxy)-1-oxaspiro[4.5]dec-3-en-2-one] | 0.229 | 3.59 |
| Cc1ccc(-c2ccc(Cl)cc2)cc1C1=C(O)C2(CCCC(C)C2)NC1=O (centres unmarked) [Example 1-82, 3-(4′-chloro-4-methylbiphenyl-3-yl)-4-hydroxy-7-methyl-1-azaspiro[4.5]dec-3-en-2-one] | 0.542 | 0.433 |
| Cc1cc(C)c(-c2ccc(Cl)cc2)cc1C1=C(O)CC(C)(C)CC1=O [Example 7-3, 2-(4′-chloro-4,6-dimethylbiphenyl-3-yl)-3-hydroxy-5,5-dimethylcyclohex-2-en-1-one] | 1.59 | 5.34 |
| Cc1ccc(-c2ccc(Cl)cc2)cc1C1=C(O)C2(CCC3(CC2)OCCCO3)NC1=O [Example 1-59, 3-(4′-chloro-4-methylbiphenyl-3-yl)-4-hydroxy-9,13-dioxa-1-azadispiro[4.2.5.2]pentadec-3-en-2-one] | 0.427 | 5.2 |
| Cc1cc(C)c(-c2ccc(Cl)cc2)c(C)c1C1=C(O)C2(CCCCC2)SC1=O [Example 3-4, 3-(4′-chloro-2,4,6-trimethylbiphenyl-3-yl)-4-hydroxy-1-thiaspiro[4.5]dec-3-en-2-one] | 1.31 | 0.228 |
| CC1COC2(CCC3(CC2)NC(=O)C(c2cc(-c4ccc(Cl)cc4)ccc2Cl)=C3O)O1 (centres unmarked) [Example 1-68, 11-(4,4′-dichlorobiphenyl-3-yl)-12-hydroxy-2-methyl-1,4-dioxa-9-azadispiro[4.2.4.2]tetradec-11-en-10-one] | 0.489 | 4.86 |
| CC1OC2(CCC3(CC2)NC(=O)C(c2cc(-c4ccc(Cl)cc4)ccc2Cl)=C3O)OC1C (centres unmarked) [Example 1-71, 11-(4,4′-dichlorobiphenyl-3-yl)-12-hydroxy-2,3-dimethyl-1,4-dioxa-9-azadispiro[4.2.4.2]tetradec-11-en-10-one] | 0.661 | > 20 |
| Cc1ccc(-c2ccc(Cl)cc2)cc1C1C(=O)N2CCCCN2C1=O [Example 8-3, 2-(4′-chloro-4-methylbiphenyl-3-yl)tetrahydro-1H-pyrazolo[1,2-a]pyridazine-1,3(2H)-dione] | 1.14 | > 20 |
| O=C1NC2(CCC3(CC2)OCCCO3)C(O)=C1c1cc(-c2ccc(Cl)cc2)ccc1Cl [Example 1-58, 3-(4,4′-dichlorobiphenyl-3-yl)-4-hydroxy-9,13-dioxa-1-azadispiro[4.2.5.2]pentadec-3-en-2-one] | 0.362 | 11.5 |
| Cc1cc(C)c(-c2ccc(Cl)cc2)cc1C1=C(O)C2(CCCCC2)SC1=O [Example 3-3, 3-(4′-chloro-4,6-dimethylbiphenyl-3-yl)-4-hydroxy-1-thiaspiro[4.5]dec-3-en-2-one] | 0.34 | 0.25 |
| CCOC1CCC2(CC1)NC(=O)C(c1cc(-c3cccc(Cl)c3)ccc1C)=C2O (centres unmarked) [Example 1-79, 3-(3′-chloro-4-methylbiphenyl-3-yl)-8-ethoxy-4-hydroxy-1-azaspiro[4.5]dec-3-en-2-one] | 0.848 | > 20 |
| Cc1ccc(-c2ccc(F)cc2)c(C)c1C1C(=O)N2CCOCCN2C1=O [Example 8-7, 8-(4′-fluoro-2,4-dimethylbiphenyl-3-yl)tetrahydro-7H-pyrazolo[1,2-d][1,4,5]oxadiazepine-7,9(8H)-dione] | 2.38 | > 20 |
| Cc1ccc(-c2ccc(Cl)cc2)cc1C1=C(O)C(C)(C)OC1=O [Example 2-3, 3-(4′-chloro-4-methylbiphenyl-3-yl)-4-hydroxy-5,5-dimethylfuran-2(5H)-one] | 0.581 | 11.7 |
| CC[C@]1(OC)CC[C@@]2(CC1)NC(=O)C(c1c(C)ccc(-c3ccc(Cl)cc3)c1C)=C2O [Example 1-88, (5r,8r)-3-(4′-chloro-2,4-dimethylbiphenyl-3-yl)-8-ethyl-4-hydroxy-8-methoxy-1-azaspiro[4.5]dec-3-en-2-one] | 0.825 | 6.9 |
| Cc1ccc(-c2ccc(F)cc2F)cc1C1C(=O)N2CCOCCN2C1=O [Example 8-5, 8-(2′,4′-difluoro-4-methylbiphenyl-3-yl)tetrahydro-7H-pyrazolo[1,2-d][1,4,5]oxadiazepine-7,9(8H)-dione] | 2.08 | > 20 |
| Cc1ccc(-c2ccc(Cl)cc2)cc1C1=C(O)CC(C)(C)NC1=O [Example 9-1, 3-(4′-chloro-4-methylbiphenyl-3-yl)-4-hydroxy-6,6-dimethyl-5,6-dihydropyridin-2(1H)-one] | 0.319 | > 20 |
| COCC1CCC2(CC1)NC(=O)C(c1cc(-c3ccc(Cl)cc3)ccc1C)=C2O (centres unmarked) [Example 1-56, 3-(4′-chloro-4-methylbiphenyl-3-yl)-4-hydroxy-8-(methoxymethyl)-1-azaspiro[4.5]dec-3-en-2-one] | 0.43 | 0.32 |
